In the supplement of paper PMC11208160:

Experiment: recombinant barcode read abundance after kanamycin selection (control-corrected) (log10(CPM+1)); higher = more efficient recombination; sequences stand for … in AGTGCAGAGAAAATCGGCCAGTTTTCTCTGCCTGCAGTCCGCATGCCGT…AGATTTATGCAGCGGACTGCCTTTCTCCCAAAGTGATAAACCGGACAGTATCATGGACCGGTTTTCCCGGTAATCCGTATTTGCAAGGTTGGTTTCACT; site = the 11-nt target
In short: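 A vector carrying a T7-inducible recombinase and the last 73 bp of the bridge RNA received, by Gibson cloning, oligos encoding a promoter, target, barcode and the first 104 bridge RNA bases under J23119. The pooled constructs entered E. coli together with a donor plasmid by electroporation. Selection used chloramphenicol/ampicillin/kanamycin with 0.1 mM IPTG, with chloramphenicol/ampicillin LB agar as the control, each in two replicates. Recombination efficiency is the averaged, control-corrected counts-per-million of barcodes at recombinant junctions, reported as log10(CPM+1).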
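Also: IS621 recombinase and bridge RNA in Escherichia coli cells.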

Row | Sequence | recombinant barcode read abundance (log10)
1 | TCTGCGACTTGGGTTCTAACCTGTTGCCT (site TCGGCGACTAG) | 0.114
2 | TCTGCGACTTGGGTTCTAACCTGTTGCCT (site TCTGCGACTAG) | 0.265
3 | TCTGGGGCTTGGGTTCTAACCTGTTGCCT (site ACTGGGGCTTG) | 0.0588
4 | TCTGGGGCTTGGGTTCTAACCTGTTGCCT (site TCTGGGGCTAG) | 0.0357
5 | TCTGGGGCTTGGGTTCTAACCTGTTGCGG (site TCTGGGGCTCA) | 0.376
6 | TCTGGGGCTTGGGTTCTAACCTGTTGCGG (site TCTGGGGCTCC) | 2.61
7 | TCTGGGGCTTGGGTTCTAACCTGTTGCGG (site TCTGGGGCTCG) | 0.271
8 | TCTGGGGCTTGGGTTCTAACCTGTTGCGG (site TCTGGGGCTCT) | 2.22
9 | TCTGTAACTTGGGTTCTAACCTGTTGCCT (site CAATCCTCTTA) | 0.183
10 | TCTGTAACTTGGGTTCTAACCTGTTGCCT (site TCTGTAACTAG) | 0.421
11 | TCTGTGTCTTGGGTTCTAACCTGTTGCTA (site ATATCAACTCG) | 0.0225
12 | TCTGTGTCTTGGGTTCTAACCTGTTGCTA (site TCTGTGTCTTA) | 1.46
13 | TCTTATACTTGGGTTCTAACCTGTTGCAT (site TCTTATACTAC) | 0.0107
14 | TCTTATACTTGGGTTCTAACCTGTTGCAT (site TCTTATACTAT) | 0.186
15 | TCTTGACCTTGGGTTCTAACCTGTTGCTT (site GGCACCACTCG) | 0.063
16 | TCTTGACCTTGGGTTCTAACCTGTTGCTT (site TCTTGACCTAA) | 0.242
17 | TCTTGCTCTTGGGTTCTAACCTGTTGCCT (site AGAACTCCTCA) | 0.102
18 | TCTTGCTCTTGGGTTCTAACCTGTTGCCT (site TCTTGCTCTAG) | 0.574
19 | TCTTGGACTTGGGTTCTAACCTGTTGCTT (site TCTTGGACTAA) | 0.421
20 | TCTTGGACTTGGGTTCTAACCTGTTGCTT (site TCTTGGACTCA) | 0.145
21 | TCTTGGACTTGGGTTCTAACCTGTTGCTT (site TCTTGGACTGA) | 0.0999
22 | TCTTGGACTTGGGTTCTAACCTGTTGCTT (site TCTTGGACTTA) | 0.138

Row | Sequence | recombinant barcode read abundance (log10)
23 | TCTTGGTCTTGGGTTCTAACCTGTTGCTA (site TCTTGGTCTTA) | 0.0413
24 | TCTTGGTCTTGGGTTCTAACCTGTTGCTA (site TTATGGTCTTA) | 0.208
25 | TCTTGTCCTTGGGTTCTAACCTGTTGCGA (site TCTTGTCCTAC) | 0.0306
26 | TCTTGTCCTTGGGTTCTAACCTGTTGCGA (site TCTTGTCCTCC) | 0.268
27 | TCTTGTCCTTGGGTTCTAACCTGTTGCGA (site TCTTGTCCTGC) | 0.343
28 | TCTTGTCCTTGGGTTCTAACCTGTTGCGA (site TCTTGTCCTTC) | 0.253
29 | TCTTGTCCTTGGGTTCTAACCTGTTGCGC (site TCTTGTCCTAC) | 0.0303
30 | TCTTGTCCTTGGGTTCTAACCTGTTGCGC (site TCTTGTCCTCC) | 0.093
31 | TCTTGTCCTTGGGTTCTAACCTGTTGCGC (site TCTTGTCCTGC) | 0.385
32 | TCTTGTCCTTGGGTTCTAACCTGTTGCGC (site TCTTGTCCTTC) | 0.0581
33 | TCTTGTCCTTGGGTTCTAACCTGTTGCGT (site TCTTGTCCTAC) | 0.682
34 | TCTTGTCCTTGGGTTCTAACCTGTTGCGT (site TCTTGTCCTCC) | 0.0386
35 | TCTTGTCCTTGGGTTCTAACCTGTTGCGT (site TCTTGTCCTGC) | 0.172
36 | TCTTGTCCTTGGGTTCTAACCTGTTGCGT (site TCTTGTCCTTC) | 0.0168
37 | TGAAACGCTTGGGTTCTAACCTGTTGCTT (site TGAAACGCTAA) | 1.2
38 | TGAAACGCTTGGGTTCTAACCTGTTGCTT (site TGAAGCCCTAA) | 0.0163
39 | TGAAAGCCTTGGGTTCTAACCTGTTGCTT (site TGAAAGCCTAA) | 0.215
40 | TGAAAGCCTTGGGTTCTAACCTGTTGCTT (site TGGAAGTCTAA) | 0.0888
41 | TGAAGCCCTTGGGTTCTAACCTGTTGCTT (site TGAAACGCTAA) | 0.179
42 | TGAAGCCCTTGGGTTCTAACCTGTTGCTT (site TGAAGCCCTAA) | 0.321
43 | TGAAGTACTTGGGTTCTAACCTGTTGCCT (site TGAAATACTAG) | 0.35
44 | TGAAGTACTTGGGTTCTAACCTGTTGCCT (site TGAACTACTAG) | 0.169

Row | Sequence | recombinant barcode read abundance (log10)
45 | TGAAGTACTTGGGTTCTAACCTGTTGCCT (site TGAAGTACTAG) | 0.257
46 | TGAAGTACTTGGGTTCTAACCTGTTGCCT (site TGAATTACTAG) | 0
47 | TGAATGACTTGGGTTCTAACCTGTTGCCT (site TGAATGACTAG) | 0.544
48 | TGAATGACTTGGGTTCTAACCTGTTGCCT (site TGGATGCCTAG) | 0.0355
49 | TGAATGTCTTGGGTTCTAACCTGTTGCCT (site TGAAAGTCTAG) | 0.0491
50 | TGAATGTCTTGGGTTCTAACCTGTTGCCT (site TGAACGTCTAG) | 0.0549
51 | TGAATGTCTTGGGTTCTAACCTGTTGCCT (site TGAAGGTCTAG) | 0.0166
52 | TGAATGTCTTGGGTTCTAACCTGTTGCCT (site TGAATGTCTAG) | 1.23
53 | TGACACACTTGGGTTCTAACCTGTTGCTG (site TGACACACTCA) | 2.22
54 | TGACACACTTGGGTTCTAACCTGTTGCTG (site TGAGACACTCA) | 0.127
55 | TGACAGTCTTGGGTTCTAACCTGTTGCAG (site CACTTAACTTG) | 0.0862
56 | TGACAGTCTTGGGTTCTAACCTGTTGCAG (site TGACAGTCTCT) | 1.42
57 | TGACATGCTTGGGTTCTAACCTGTTGCCT (site TGAAATGCTAG) | 0.108
58 | TGACATGCTTGGGTTCTAACCTGTTGCCT (site TGACATGCTAG) | 1.37
59 | TGACATGCTTGGGTTCTAACCTGTTGCCT (site TGAGATGCTAG) | 0.0442
60 | TGACATGCTTGGGTTCTAACCTGTTGCCT (site TGATATGCTAG) | 0.172
61 | TGACCCTCTTGGGTTCTAACCTGTTGCCT (site AGACCCTCTAG) | 0.703
62 | TGACCCTCTTGGGTTCTAACCTGTTGCCT (site CGACCCTCTAG) | 0.465
63 | TGACCCTCTTGGGTTCTAACCTGTTGCCT (site GGACCCTCTAG) | 0.0227
64 | TGACCCTCTTGGGTTCTAACCTGTTGCCT (site TGACCCTCTAG) | 2.39
65 | TGACGTCCTTGGGTTCTAACCTGTTGCAT (site TGACGTCCTAA) | 0.0504
66 | TGACGTCCTTGGGTTCTAACCTGTTGCAT (site TGACGTCCTAC) | 0.0943

Row | Sequence | recombinant barcode read abundance (log10)
67 | TGACGTCCTTGGGTTCTAACCTGTTGCAT (site TGACGTCCTAG) | 0.0926
68 | TGACGTCCTTGGGTTCTAACCTGTTGCAT (site TGACGTCCTAT) | 0.695
69 | TGACGTCCTTGGGTTCTAACCTGTTGCTT (site TGACGTCCTAA) | 0.293
70 | TGACGTCCTTGGGTTCTAACCTGTTGCTT (site TGACGTCCTAC) | 0.033
71 | TGACGTCCTTGGGTTCTAACCTGTTGCTT (site TGACGTCCTAG) | 0.122
72 | TGACGTCCTTGGGTTCTAACCTGTTGCTT (site TGACGTCCTAT) | 0.251
73 | TGAGATGCTTGGGTTCTAACCTGTTGCCT (site TGAAATGCTAG) | 0.199
74 | TGAGATGCTTGGGTTCTAACCTGTTGCCT (site TGACATGCTAG) | 0.026
75 | TGAGATGCTTGGGTTCTAACCTGTTGCCT (site TGAGATGCTAG) | 1.72
76 | TGAGATGCTTGGGTTCTAACCTGTTGCCT (site TGATATGCTAG) | 0.124
77 | TGAGATTCTTGGGTTCTAACCTGTTGCAT (site TGAGATTCTAT) | 1.55
78 | TGAGATTCTTGGGTTCTAACCTGTTGCAT (site TGTGATCCTAT) | 0.0159
79 | TGAGCGGCTTGGGTTCTAACCTGTTGCCT (site TGAGAGGCTAG) | 0.143
80 | TGAGCGGCTTGGGTTCTAACCTGTTGCCT (site TGAGCGGCTAG) | 0.438
81 | TGAGCGGCTTGGGTTCTAACCTGTTGCCT (site TGAGGGGCTAG) | 0.00469
82 | TGAGCGGCTTGGGTTCTAACCTGTTGCCT (site TGAGTGGCTAG) | 0.0667
83 | TGAGTACCTTGGGTTCTAACCTGTTGCTT (site TGAGTACCTAA) | 1.39
84 | TGAGTACCTTGGGTTCTAACCTGTTGCTT (site TGAGTCCCTAA) | 0.0336
85 | TGAGTACCTTGGGTTCTAACCTGTTGCTT (site TGAGTGCCTAA) | 0.856
86 | TGAGTACCTTGGGTTCTAACCTGTTGCTT (site TGAGTTCCTAA) | 0.144
